Reference: the NIST ThermoML archive (doi:10.1016/j.jct.2012.07.015)

Columns and labels:
[1] = molar heat capacity at constant pressure; conditions: 101.33 kPa, Liquid, Small sample (50 mg) DSC
[2] = Molar enthalpy of transition or fusion; conditions: Crystal; DSC
[3] = for viscosity / mass density: 101.33 kPa; for viscosity / mass density / surface tension liquid-gas: Liquid; for mass density: Vibrating tube method

CCCCCC[n+]1ccc(C#N)cc1.O=S(=O)([N-]S(=O)(=O)C(F)(F)F)C(F)(F)F [1-hexyl-4-cyanopyridinium bis(trifluoromethylsulfonyl)imide]
Conditions | Glass transition temperature [°C] | mass density [kg/m3] | molar heat capacity at constant pressure [J/K/mol] | surface tension liquid-gas [mN/m] | viscosity [mPa·s]
[1], 298.15 K | – | – | 633 | – | –
[1], 323.15 K | – | – | 643 | – | –
[1], 353.15 K | – | – | 652 | – | –
[3], 293.15 K | – | 1411.6 | – | – | 1065.6
[3], 298.15 K | – | 1407.1 | – | 30.6 | 704.2
[3], 303.15 K | – | 1402.6 | – | – | 481.8
[3], 308.15 K | – | 1398.1 | – | 30.25 | 340.3
[3], 313.15 K | – | 1393.6 | – | – | 235.8
[3], 318.15 K | – | 1389.1 | – | 29.89 | 175.4
[3], 323.15 K | – | 1384.8 | – | – | 133.3
[3], 328.15 K | – | 1380.5 | – | 29.48 | 103.3
[3], 333.15 K | – | 1376.1 | – | – | 81.7
[3], 338.15 K | – | 1371.8 | – | 29.01 | 65.6
[3], 343.15 K | – | 1367.5 | – | – | 53.5
[3], 348.15 K | – | 1363.2 | – | – | 44.3
[3], 353.15 K | – | 1358.9 | – | – | 37.2
[3], 358.15 K | – | 1354.6 | – | – | 31.5
[3], 363.15 K | – | 1350.3 | – | – | 26.9
[3], DTA | -51.9 | – | – | – | –

Conditions | Molar enthalpy of transition or fusion [kcal/mol]
[2] | 4.5

Conditions | Triple point temperature [K]
[3], Crystal, DTA | 280.2

CCCC[n+]1cccc(C#N)c1.O=S(=O)([N-]S(=O)(=O)C(F)(F)F)C(F)(F)F [1-butyl-3-cyanopyridinium bis(trifluoromethylsulfonyl)imide]
Conditions | Glass transition temperature [°C] | mass density [kg/m3] | molar heat capacity at constant pressure [J/K/mol] | surface tension liquid-gas [mN/m] | viscosity [mPa·s]
[1], 298.15 K | – | – | 586 | – | –
[1], 323.15 K | – | – | 596 | – | –
[1], 353.15 K | – | – | 605 | – | –
[3], 293.15 K | – | 1483.2 | – | – | 1546.7
[3], 298.15 K | – | 1478.7 | – | 32 | 983.7
[3], 303.15 K | – | 1474.2 | – | – | 659.7
[3], 308.15 K | – | 1469.7 | – | 31.77 | 485.1
[3], 313.15 K | – | 1465.3 | – | – | 327.5
[3], 318.15 K | – | 1460.8 | – | 31.59 | 240.7
[3], 323.15 K | – | 1456.3 | – | – | 182.6
[3], 328.15 K | – | 1452 | – | 31.39 | 140.5
[3], 333.15 K | – | 1447.7 | – | – | 110.1
[3], 338.15 K | – | 1443.4 | – | 31.09 | 87.9
[3], 343.15 K | – | 1439.1 | – | – | 67.6
[3], 348.15 K | – | 1434.8 | – | – | 55.3
[3], 353.15 K | – | 1430.5 | – | – | 45.8
[3], 358.15 K | – | 1426.3 | – | – | 38.5
[3], 363.15 K | – | 1422 | – | – | 32.8
[3], DTA | -54.4 | – | – | – | –
